In patent US4247712A, “Preservation of aqueous systems with 2-chloro-3-oxobutyramide derivatives” (Givaudan Corporation, priority 1979, dated 1981):
Converted amounts (≈) assume the structure as drawn.

Experiments:
Assay type in all cases: cell-based
Aspergillus niger [1] = test: General antimicrobial activity, 5-fold serial dilution test in agar (MIC); conditions: 168 h, 28° C., seven days, growth only at lower concentration of range, read-out: minimum inhibitory concentration (MIC), F1
Experimental: (§1) General antibacterial and antifungal activity was evaluated by a 5-fold serial dilution test in agar. In this test, compounds were prepared as 6% solutions in dimethylformamide or ethanol. The 6% solution was then 5-fold serially diluted in test tubes to give the desired concentrations when mixed with agar and poured into sterile Petri dishes. Tryptone glucose extract agar was used for the bacterial testing; mildew glucose agar for the fungal testing. The bacterial plates were spot inoculated with 24-hour nutrient broth cultures and incubated at 37° C. for 48 hours. The fungal plates were spot inoculated with spore suspensions and incubated at 28° C. for seven days. At the end of the incubation periods, all plates were examined for growth. The minimum inhibitory concentration (MIC) for each organism is expressed in Table I. In the ranges presented, growth is observed only at the lower concentration.
(§2) The activity is presented in Tabular Form (Table I) using the following key.

Aspergillus oryzae = test: as above; conditions: 168 h, 28° C., seven days, growth only at lower concentration of range, read-out: minimum inhibitory concentration (MIC), F2
Experimental: as §1, §2

Aureobasidium pullulans = test: as above; conditions: 168 h, 28° C., seven days, growth only at lower concentration of range, read-out: minimum inhibitory concentration (MIC), F4
Experimental: as §1, §2

Bacillus subtilis = test: as above; conditions: 37° C., 48 hours, growth only at lower concentration of range, read-out: minimum inhibitory concentration (MIC), B5
Experimental: as §1, §2

Escherichia coli = test: as above; conditions: 37° C., 48 hours, growth only at lower concentration of range, read-out: minimum inhibitory concentration (MIC), B2
Experimental: as §1, §2

Penicillium piscarium = test: as above; conditions: 168 h, 28° C., seven days, growth only at lower concentration of range, read-out: minimum inhibitory concentration (MIC), F3
Experimental: as §1, §2

Proteus vulgaris = test: as above; conditions: 37° C., 48 hours, growth only at lower concentration of range, read-out: minimum inhibitory concentration (MIC), B4
Experimental: as §1, §2

Pseudomonas aeruginosa [2] = test: as above; conditions: 37° C., 48 hours, growth only at lower concentration of range, read-out: minimum inhibitory concentration (MIC), B3
Experimental: as §1, §2

Staphylococcus aureus = test: as above; conditions: 37° C., 48 hours, growth only at lower concentration of range, read-out: minimum inhibitory concentration (MIC), B1
Experimental: as §1, §2

Aspergillus niger [3] = test: Utility as a cosmetic preservative (cosmetic lotion); conditions: weekly reinoculation
Experimental: (§3) The 2-Chloro-3-oxobutyramide derivatives are effective cosmetic preservatives. Two-fold serial dilutions of 6% solutions of the 2-haloacetoacetic acid derivatives in dimethylformamide were added to a cosmetic lotion of the following formulation: |Stearic acid 1.4 g |Arlacel 60 (sorbitan |monostearate) 0.7 g |Tween 20 Polyoxethylene |(20) sorbitan |monostearate 1.6 g |Distilled water 94.0 g The lotions were inoculated with both Pseudomonas aeruginosa and Aspergillus niger and incubated at 28° C. At weekly intervals, the lotions were examined for microorganisms by conventional streak-plate methods or by macroscopic observation. The lotions were then reinoculated with the test organisms and reincubated.

Pseudomonas aeruginosa [4] = test: as above; conditions: weekly reinoculation
Experimental: as §3

Pseudomonas aeruginosa [5] = test: Utility in water and oil emulsions (3.3% cutting oil emulsions); conditions: 28° C., weekly reinoculation, read-out: Minimum Inhibitory Concentration Range
Experimental: The utility of the 2-chloro-3-oxobutyramide derivatives in water and oil emulsions is illustrated below using a commercially available cutting oil. In running these tests, two-fold serial dilutions of 6% solutions of the compound in dimethylformamide was added to 3.3% cutting oil emulsions. The emulsions were prepared by diluting with water a commercially available cutting oil concentrate. The emulsions were inoculated with a culture of Pseudomonas aeruginosa and incubated at 28° C. on a rotary shaker. At weekly intervals, the emulsions were examined for bacteria by conventional streak-plate methods. The emulsions were then reinoculated with Pseudomonas aeruginosa and reincubated. […] indicate the activity range for that compound.

[6] = system: broad spectrum of microorganisms including gram positive bacteria, gram negative bacteria and molds; test: Antimicrobial activity, general statement in the text

**Q.** Which MIC (Aspergillus niger [1]) does the source give for `CC(=O)C(Cl)C(=O)N(C)C` (stereo not shown) [R1=CH3, R2=CH3, 2-chloro-N,N-dimethyl-3-oxobutyramide] here?
**A.** The MIC was 384 to 1920 µg/mL (≈ 2350 to 11700 µM).

**Q.** And the MIC (Aspergillus oryzae)?
**A.** Its MIC is 384 to 1920 µg/mL (≈ 2350 to 11700 µM).

**Q.** What about the MIC (Aureobasidium pullulans) of the same molecule?
**A.** Its MIC is 76.8 to 384 µg/mL (≈ 469 to 2350 µM).

**Q.** And the MIC (Bacillus subtilis)?
**A.** The MIC was 384 to 1920 µg/mL (≈ 2350 to 11700 µM).

**Q.** And the MIC (Escherichia coli)?
**A.** Its MIC is 76.8 to 384 µg/mL (≈ 469 to 2350 µM).

**Q.** And the MIC (Penicillium piscarium)?
**A.** The MIC was 384 to 1920 µg/mL (≈ 2350 to 11700 µM).

**Q.** And the MIC (Proteus vulgaris)?
**A.** The MIC was 76.8 to 384 µg/mL (≈ 469 to 2350 µM).

**Q.** What about the MIC (Pseudomonas aeruginosa [2]) of the same molecule?
**A.** The MIC was 384 to 1920 µg/mL (≈ 2350 to 11700 µM).

**Q.** What about the MIC (Staphylococcus aureus) of the same molecule?
**A.** The MIC was 384 to 1920 µg/mL (≈ 2350 to 11700 µM).

**Q.** And the “minimum inhibitory concentration effective in preventing microbial growth” value (Aspergillus niger [3]; Week 1, 28° C.)?
**A.** Its value is 1 (1000-2000 mcg/gm).

**Q.** And the “minimum inhibitory concentration effective in preventing microbial growth” value (Aspergillus niger [3]; Week 2, 28° C.)?
**A.** Its value is 1 (1000-2000 mcg/gm).

**Q.** And the “minimum inhibitory concentration effective in preventing microbial growth” value (Aspergillus niger [3]; Week 3, 28° C.)?
**A.** The value was 1 (1000-2000 mcg/gm).

**Q.** And the “minimum inhibitory concentration effective in preventing microbial growth” value (Aspergillus niger [3]; Week 4, 28° C.)?
**A.** Its value is 1 (1000-2000 mcg/gm).

**Q.** What about the “minimum inhibitory concentration effective in preventing microbial growth” value (Pseudomonas aeruginosa [4]; Week 1, 28° C.) of the same molecule?
**A.** Its value is 2 (500-1000 mcg/gm).

**Q.** And the “minimum inhibitory concentration effective in preventing microbial growth” value (Pseudomonas aeruginosa [4]; Week 2, 28° C.)?
**A.** The value was 2 (500-1000 mcg/gm).

**Q.** And the “minimum inhibitory concentration effective in preventing microbial growth” value (Pseudomonas aeruginosa [4]; Week 3, 28° C.)?
**A.** The value was 2 (500-1000 mcg/gm).

**Q.** And the “minimum inhibitory concentration effective in preventing microbial growth” value (Pseudomonas aeruginosa [4]; Week 4, 28° C.)?
**A.** Its value is 2 (500-1000 mcg/gm).

**Q.** What about the MIC (Pseudomonas aeruginosa [5]; Week 1, 3.3% cutting oil emulsion) of the same molecule?
**A.** Its MIC is 125 to 500 µg/mL (≈ 764 to 3060 µM).

**Q.** What about the MIC (Pseudomonas aeruginosa [5]; Week 2, 3.3% cutting oil emulsion) of the same molecule?
**A.** Its MIC is 250 to 500 µg/mL (≈ 1530 to 3060 µM).

**Q.** And the MIC (Pseudomonas aeruginosa [5]; Week 3, 3.3% cutting oil emulsion)?
**A.** Its MIC is 250 to 500 µg/mL (≈ 1530 to 3060 µM).

**Q.** And the MIC (Pseudomonas aeruginosa [5]; Week 4, 3.3% cutting oil emulsion)?
**A.** The MIC was 250 to 500 µg/mL (≈ 1530 to 3060 µM).

**Q.** And the “antimicrobial activity (in words)” value [6]?
**A.** Its value is “high level of activity”.
